{"source": "patent US11278547B2", "about": "(Strongbridge Dublin Limited, priority 2019, dated 2022)", "key": {"OCT2": {"biological_target": "T1, OCT2 (Homo sapiens, UniProt O15244)", "T1 sequence (O15244 1-555)": "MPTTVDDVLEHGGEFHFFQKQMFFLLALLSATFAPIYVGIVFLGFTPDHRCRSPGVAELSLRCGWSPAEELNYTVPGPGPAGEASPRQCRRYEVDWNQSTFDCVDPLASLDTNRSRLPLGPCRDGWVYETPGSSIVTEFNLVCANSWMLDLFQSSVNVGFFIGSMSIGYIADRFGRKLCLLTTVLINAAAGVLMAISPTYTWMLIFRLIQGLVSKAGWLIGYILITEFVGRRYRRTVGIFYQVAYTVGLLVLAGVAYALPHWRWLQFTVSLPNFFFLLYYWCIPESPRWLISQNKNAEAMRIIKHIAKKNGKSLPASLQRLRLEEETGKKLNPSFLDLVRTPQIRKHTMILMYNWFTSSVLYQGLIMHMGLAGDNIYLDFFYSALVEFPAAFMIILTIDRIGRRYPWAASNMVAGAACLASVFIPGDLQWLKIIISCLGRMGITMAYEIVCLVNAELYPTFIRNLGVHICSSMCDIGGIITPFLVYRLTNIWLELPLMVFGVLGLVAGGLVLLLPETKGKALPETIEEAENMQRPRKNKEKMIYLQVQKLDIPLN"}, "MATE1": {"biological_target": "T2, MATE1 (Homo sapiens, UniProt Q96FL8)", "T2 sequence (Q96FL8 1-570)": "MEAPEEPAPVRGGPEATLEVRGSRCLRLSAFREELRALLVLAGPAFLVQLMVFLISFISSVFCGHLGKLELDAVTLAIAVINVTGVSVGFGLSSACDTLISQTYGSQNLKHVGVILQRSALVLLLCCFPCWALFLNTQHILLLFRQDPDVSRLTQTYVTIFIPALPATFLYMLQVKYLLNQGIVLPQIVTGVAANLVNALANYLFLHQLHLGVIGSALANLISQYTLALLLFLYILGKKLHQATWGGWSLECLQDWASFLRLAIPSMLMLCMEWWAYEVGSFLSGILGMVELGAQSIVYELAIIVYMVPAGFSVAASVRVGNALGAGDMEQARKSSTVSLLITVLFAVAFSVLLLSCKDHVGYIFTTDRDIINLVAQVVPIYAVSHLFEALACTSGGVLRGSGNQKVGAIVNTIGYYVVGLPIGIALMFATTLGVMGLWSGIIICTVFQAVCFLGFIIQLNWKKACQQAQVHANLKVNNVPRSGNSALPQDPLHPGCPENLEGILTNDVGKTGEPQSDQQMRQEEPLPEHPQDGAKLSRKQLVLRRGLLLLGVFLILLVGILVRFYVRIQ"}, "[1]": {"conditions": "Cushing's syndrome patients, reportedly; cited from earlier work"}}}
{"smiles": "CC(=O)N1CCN(c2ccc(OCC3COC(Cn4ccnc4)(c4ccc(Cl)cc4Cl)O3)cc2)CC1", "note": "(racemic) [Ketoconazole, ketoconazole]", "values": [{"measurement": "IC50", "setting": "OCT2", "result": 1520, "unit": "nM"}, {"measurement": "IC50", "setting": "MATE1", "result": 279, "unit": "nM"}, {"measurement": "patients in whom hypercortisolism is normalized", "setting": "[1]", "result": "30-70%"}]}
{"smiles": "CC(=O)N1CCN(c2ccc(OC[C@@H]3CO[C@@](Cn4ccnc4)(c4ccc(Cl)cc4Cl)O3)cc2)CC1", "note": "(relative stereo) [Levoketoconazole, 2S,4R cis-1-acetyl-4-[4-[[2-(2,4-dichlorophenyl)-2-(1H-imidazol-1-ylmethyl)-1,3-dioxolan-4-yl]methoxyl]phenyl]piperazine]", "values": [{"measurement": "IC50", "setting": "OCT2", "result": 218, "unit": "nM"}, {"measurement": "IC50", "setting": "MATE1", "result": 248, "unit": "nM"}]}
